{"source": "patent US12714688B2", "about": "“Margaric acid decreases PIEZ02-mediated pain” (The United States of America, as represented by The …, priority 2020, dated 2026)", "key": {"[1]": {"tested_on": "Piezo2 V16", "assay": "Whole-cell patch-clamp of N2A^Piezo1−/− cells transfected with Piezo2 V16", "conditions": "300 μM; 18 h", "description": "(§4) Cell culture and electrophysiology: Piezo1 knock-out mouse N2A (N2A^Piezo1−/−) cells were a gift from Dr. Gary R. Lewin, human Merkel cell carcinoma cell line (MCC13 cells; Cell Bank Australia reference number: CBA1338) were obtained from Sigma, and DRG neurons were obtained from sacrificed mice. N2A^Piezo1−/− cells were cultured in Dulbecco's Modified Eagle Medium (DMEM), 5% penicillin streptomycin and 10% fetal bovine serum (FBS); MCC13 cells were cultured in RPMI 1640 (with 2 mM L-glutamine+25 mM HEPES; Sigma), 5% penicillin-streptomycin and 10% FBS and; DRG neurons were cultured in DMEM, 1% penicillin-streptomycin, 1% MEM vitamin solution, 1% L-glutamine, and 10% horse serum. Prior to electrophysiological measurements, N2A^Piezo1−/−, MCC13 and DRG neurons were supplemented overnight (≈18 h) with MA. […] MA was obtained from Nu-Chek Prep, INC. The cultured cells were maintained at 37° C., 95% relative humidity, and 5% CO2.\n(§5) For whole-cell recordings, the bath solution contained 140 mM NaCl, 6 mM KCl, 2 mM CaCl2), 1 mM MgCl2, 10 mM glucose, and 10 mM HEPES (pH 7.4; 300 mOsm). […]\n(§6) During mechanical stimulation, currents were recorded at a constant voltage (−60 mV, voltage-clamp), and voltages were recorded without injecting current (current-clamp). […]"}, "[2]": {"tested_on": "mice", "assay": "Von Frey test after acute inflammation by topical AITC", "type": "in vivo, mouse", "conditions": "MA treatment for 7 days, then AITC", "method": "(§1) Mice behavior: MA solution: MA was prepared in sterile Dulbecco's phosphate buffered saline, with 70 g/L fatty acid free bovine serum albumin (BSA; Sigma), and MA to a final concentration of 5 mM. The solution was filtered to avoid undissolved materials.\n(§2) Subjects: For the experiment 8-12 weeks old male and female C57B16/J mice (N=12; control n=6; male=3, female=3) MA (n=6; male=3, female=3) per experiment were used. Mice were housed under a 12 hr light dark cycle and granted access to food and water ad libitum.\nTreatment: Animals were put in two groups (control and MA) and given injections in the plantar of the left hind paw for 7 days prior behavioral assessment. Injections were given as follows: Mouse is restrained by their tail, foot, and over shoulders scruff. […]\n(§3) Mechanical threshold (Von Frey test): Punctate mechanical allodynia was measured using Von Frey monofilaments (Stoelting, Inc.) in varying grams of force (0.008-1 g). Animals were placed in small enclosures over a wire mesh and the plantar of the hind paw was poked with a filament and responses were recorded. Withdrawal responses were recorded when the animal lifted, shook, or licked the paw in response to stimulus presentation. […]"}, "[3]": {"tested_on": "mechano-activated currents of DRG neurons", "assay": "Bradykinin sensitization of mechano-activated currents in mouse DRG neurons", "type": "cell-based"}, "[4]": {"biological_target": "T1, endogenous PIEZO2 (Homo sapiens, UniProt Q9H5I5)", "T1 construct": "endogenous in cells; host or cells: sensory neurons differentiated from human WTC11 iPSC line", "assay": "Whole-cell patch-clamp of mechanically activated currents in human iPSC-derived neurons", "type": "cell-based", "excerpt": "Human iPSC-derived neurons: For generating human peripheral sensory neuron cultures, a version of the healthy control WTC11 iPSC line was used. This line was previously engineered to harbor a doxycycline-inducible NGN2-BRN3A construct that enables rapid and efficient sensory neuron differentiation. Undifferentiated iPSCs were maintained in E8 flex medium (invitrogen) on polystyrene plates coated with Matrigel® (Corning). The medium was exchanged every 1-3 days, and the cells were passaged every 4-7 days with Accutase® (Invitrogen) and plated overnight with 10 μM of the ROCK-inhibitor Y-27632 (Tocris). For sensory neuron differentiation, iPSCs were seeded at 20,000 cells·(cm2)−1 in neural differentiation medium (NDM) on Matrigel®-coated plates. The cells were then re-plated after 48 hours at 50,000 cells·(cm^2)^−1 onto dishes coated with polyethylenimine (Sigma-Aldrich) and laminin (Invitrogen). NDM consisted of (all from Invitrogen) 1:1 DMEM/F12 and Neurobasal™ medium supplemented with N2, B27, and GlutaMAX™ at manufacturer-recommended dilution. 2 μg·ml^−1 doxycycline (Clontech) was included in the medium for the duration of the culture, 10 μM."}, "[5]": {"biological_target": "PIEZO1 (Mus musculus, UniProt E2JF22)", "assay": "Whole-cell patch-clamp with mechanical indentation of N2A cells expressing endogenous Piezo1", "conditions": "IC50 of inhibition of PIEZO1 currents, mean±SEM", "description": "as §4, §5, §6\nData analysis: Results were expressed as means±SD (unless otherwise noted). […]"}, "[6]": {"biological_target": "endogenous PIEZO2 currents in MCC13 (Homo sapiens, UniProt Q9H5I5)", "assay": "Whole-cell patch-clamp of mechanically stimulated MCC13 cells", "conditions": "300 μM", "description": "as §4\nFor whole-cell recordings, the bath solution contained 140 mM NaCl, 6 mM KCl, 2 mM CaCl2), 1 mM MgCl2, 10 mM glucose, and 10 mM HEPES (pH 7.4; 300 mOsm). The pipette solution for voltage-clamp recordings contained: 140 mM CsCl, 5 mM EGTA, 1 mM CaCl2), 1 mM MgCl2, and 10 mM HEPES (pH 7.2); and for current clamp recordings: 140 mM KCl, 6 mM NaCl, 2 mM CaCl2), 1 mM MgCl2, 10 mM glucose, and 10 mM HEPES (pH 7.4; 300 mOsm); MA and bradykinin acetate salt (Sigma) perfused during experiments were dissolved in the bath solution to a final concentration of 300 μM for 2 min, and 1 μM for 5 min respectively; and for long exposure experiments bradykinin was supplemented to the culture medium and added to the cells 18-24 h prior recording. For cytoskeleton disruption experiments, N2A^Piezo1−/− were incubated in media supplemented with 1 μM latrunculin A (Cayman Chemicals) for 1 h prior recordings. […]\nas §6"}, "[7]": {"tested_on": "mechano-activated currents of mouse DRG neurons", "assay": "Whole-cell patch-clamp of mechano-activated currents in cultured mouse DRG neurons", "conditions": "300 μM", "description": "as §4\nFor whole-cell recordings, the bath solution contained 140 mM NaCl, 6 mM KCl, 2 mM CaCl2), 1 mM MgCl2, 10 mM glucose, and 10 mM HEPES (pH 7.4; 300 mOsm). The pipette solution for voltage-clamp recordings contained: 140 mM CsCl, 5 mM EGTA, 1 mM CaCl2), 1 mM MgCl2, and 10 mM HEPES (pH 7.2); and for current clamp recordings: 140 mM KCl, 6 mM NaCl, 2 mM CaCl2), 1 mM MgCl2, 10 mM glucose, and 10 mM HEPES (pH 7.4; 300 mOsm); MA and bradykinin acetate salt (Sigma) perfused during experiments were dissolved in the bath solution to a final concentration of 300 μM for 2 min, and 1 μM for 5 min respectively; and for long exposure experiments bradykinin was supplemented to the culture medium and added to the cells 18-24 h prior recording. […] Pipettes were made out of borosilicate glass (Sutter Instruments) and were fire-polished before use until a resistance between 3 and 5 MΩ was reached.\nDuring mechanical stimulation, currents were recorded at a constant voltage (−60 mV, voltage-clamp), and voltages were recorded without injecting current (current-clamp). Both variables were sampled at 100 kHz and low-pass filtered at 10 kHz using a MultiClamp™ 700 B amplifier and Clampex (Molecular Devices, LLC). […] In both cases, variables were sampled at 20 kHz and low-pass filtered at 10 kHz. Leak currents before mechanical stimulations were subtracted off-line from the current traces and data were digitally filtered at 2 kHz with ClampFit (Molecular Devices, LLC).\nThe blunt pipette was mounted on a micromanipulator at an ~45° angle and positioned 3-4 μm above from the cells without indenting them. Displacement measurements were obtained with a square-pulse protocol consisting of 1 μm incremental indentation steps, each lasting 200 ms with a 2-ms ramp in 10-s intervals. […]"}, "[8]": {"tested_on": "mechano-activated currents of rat DRG neurons", "assay": "Whole-cell patch-clamp of mechano-activated currents in rat DRG neurons", "conditions": "300 μM for 18 h"}, "[9]": {"tested_on": "mice", "assay": "Von Frey test, repeated injury model (daily hind paw injection)", "type": "in vivo, mouse", "method": "as §1, §2\nInjections were given as follows: Mouse is restrained by their tail, foot, and over shoulders scruff. The compound is delivered using a 3/10 cc insulin syringe into the plantar surface of the back foot of each mouse. The beveled needle is inserted at a 35-40° angle and 20-50 μl of the compound is injected subcutaneously. […]\nas §3"}, "[10]": {"tested_on": "Piezo2 V14", "assay": "Whole-cell patch-clamp of N2A^Piezo1−/− cells transfected with Piezo2 V14", "conditions": "300 μM; 18 h", "description": "as §4, §5, §6"}, "[11]": {"tested_on": "mouse DRG neurons", "assay": "Electrical excitability of mouse DRG neurons (voltage-gated currents, membrane potential, current injection)", "type": "cell-based"}, "[12]": {"biological_target": "mouse PIEZO2 (Mus musculus, UniProt Q8CD54)", "sequence (Q8CD54 whole entry)": "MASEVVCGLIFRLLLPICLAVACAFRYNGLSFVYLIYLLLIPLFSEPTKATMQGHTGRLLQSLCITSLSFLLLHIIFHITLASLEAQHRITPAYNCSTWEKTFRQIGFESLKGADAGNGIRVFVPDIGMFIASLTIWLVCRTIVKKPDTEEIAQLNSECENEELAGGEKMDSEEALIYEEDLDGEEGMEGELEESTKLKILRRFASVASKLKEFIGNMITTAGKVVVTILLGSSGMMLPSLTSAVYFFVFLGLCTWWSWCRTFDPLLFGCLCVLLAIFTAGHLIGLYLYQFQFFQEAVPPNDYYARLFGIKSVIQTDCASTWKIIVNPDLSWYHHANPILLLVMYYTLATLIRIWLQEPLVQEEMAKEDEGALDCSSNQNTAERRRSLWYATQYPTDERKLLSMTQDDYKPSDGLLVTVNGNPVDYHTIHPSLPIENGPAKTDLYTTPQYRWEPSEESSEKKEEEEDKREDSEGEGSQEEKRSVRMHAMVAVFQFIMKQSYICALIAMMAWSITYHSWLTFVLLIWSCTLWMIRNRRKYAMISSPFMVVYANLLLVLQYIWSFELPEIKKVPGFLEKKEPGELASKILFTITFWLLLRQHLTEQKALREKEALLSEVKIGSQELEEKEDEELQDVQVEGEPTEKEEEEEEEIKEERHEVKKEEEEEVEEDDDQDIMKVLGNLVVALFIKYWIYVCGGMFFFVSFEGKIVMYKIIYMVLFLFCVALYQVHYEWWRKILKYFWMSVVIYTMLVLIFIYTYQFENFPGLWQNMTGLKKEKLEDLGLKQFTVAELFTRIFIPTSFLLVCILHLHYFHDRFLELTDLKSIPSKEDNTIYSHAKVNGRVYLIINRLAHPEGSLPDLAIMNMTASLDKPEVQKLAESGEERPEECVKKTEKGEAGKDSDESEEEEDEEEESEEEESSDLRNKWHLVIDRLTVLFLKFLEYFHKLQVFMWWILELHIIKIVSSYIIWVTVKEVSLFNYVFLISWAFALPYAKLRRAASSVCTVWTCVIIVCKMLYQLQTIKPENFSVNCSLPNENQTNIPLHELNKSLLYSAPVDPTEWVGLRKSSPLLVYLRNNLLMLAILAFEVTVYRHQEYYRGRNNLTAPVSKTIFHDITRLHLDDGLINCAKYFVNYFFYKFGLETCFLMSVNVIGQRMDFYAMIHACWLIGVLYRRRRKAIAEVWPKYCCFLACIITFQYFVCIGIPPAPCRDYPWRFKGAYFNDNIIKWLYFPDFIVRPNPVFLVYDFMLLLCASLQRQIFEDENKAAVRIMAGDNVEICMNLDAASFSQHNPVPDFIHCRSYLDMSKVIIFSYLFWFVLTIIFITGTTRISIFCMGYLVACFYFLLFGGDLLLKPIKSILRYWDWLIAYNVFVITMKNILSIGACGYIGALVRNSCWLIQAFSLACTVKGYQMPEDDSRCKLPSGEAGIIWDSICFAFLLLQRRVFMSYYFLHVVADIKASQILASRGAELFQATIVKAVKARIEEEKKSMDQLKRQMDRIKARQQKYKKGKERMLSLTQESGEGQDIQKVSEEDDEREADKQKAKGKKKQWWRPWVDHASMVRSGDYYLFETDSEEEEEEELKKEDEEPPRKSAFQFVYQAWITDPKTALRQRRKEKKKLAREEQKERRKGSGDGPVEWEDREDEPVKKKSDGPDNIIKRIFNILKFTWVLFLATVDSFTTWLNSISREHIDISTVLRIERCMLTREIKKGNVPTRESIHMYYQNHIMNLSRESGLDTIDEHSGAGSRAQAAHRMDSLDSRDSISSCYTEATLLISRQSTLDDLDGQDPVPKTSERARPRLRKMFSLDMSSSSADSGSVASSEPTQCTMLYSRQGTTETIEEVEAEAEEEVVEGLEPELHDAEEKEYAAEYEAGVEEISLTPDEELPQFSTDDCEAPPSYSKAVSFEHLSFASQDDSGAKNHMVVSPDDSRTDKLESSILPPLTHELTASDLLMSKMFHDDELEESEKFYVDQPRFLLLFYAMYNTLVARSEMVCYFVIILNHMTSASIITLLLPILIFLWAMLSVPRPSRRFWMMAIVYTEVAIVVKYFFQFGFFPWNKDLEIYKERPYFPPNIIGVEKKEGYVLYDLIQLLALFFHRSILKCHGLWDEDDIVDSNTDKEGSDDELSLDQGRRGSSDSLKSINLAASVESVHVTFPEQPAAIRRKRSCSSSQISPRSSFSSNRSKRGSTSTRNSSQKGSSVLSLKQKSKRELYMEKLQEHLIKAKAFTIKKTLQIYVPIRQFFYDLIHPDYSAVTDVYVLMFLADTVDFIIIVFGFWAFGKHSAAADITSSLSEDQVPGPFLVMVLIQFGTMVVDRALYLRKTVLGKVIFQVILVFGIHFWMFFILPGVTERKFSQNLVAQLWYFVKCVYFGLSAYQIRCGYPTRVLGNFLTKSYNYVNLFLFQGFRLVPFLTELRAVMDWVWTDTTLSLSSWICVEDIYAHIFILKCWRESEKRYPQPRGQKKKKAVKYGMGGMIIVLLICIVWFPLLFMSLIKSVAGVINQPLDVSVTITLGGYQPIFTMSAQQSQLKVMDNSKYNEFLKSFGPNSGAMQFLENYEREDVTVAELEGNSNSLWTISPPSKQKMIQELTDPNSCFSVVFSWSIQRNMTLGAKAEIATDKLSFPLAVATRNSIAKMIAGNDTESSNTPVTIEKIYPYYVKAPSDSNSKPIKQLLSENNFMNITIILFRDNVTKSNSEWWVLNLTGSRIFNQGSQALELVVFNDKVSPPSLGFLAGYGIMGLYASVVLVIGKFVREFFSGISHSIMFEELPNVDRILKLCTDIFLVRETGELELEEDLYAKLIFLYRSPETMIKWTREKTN", "assay": "Whole-cell patch-clamp with mechanical indentation of N2A^Piezo1−/− cells transfected with Piezo2 variant 2 (V2)", "conditions": "for IC50: IC50 of inhibition of PIEZO2 currents, mean±SEM", "description": "as §4\n(§7) For whole-cell recordings, the bath solution contained 140 mM NaCl, 6 mM KCl, 2 mM CaCl2), 1 mM MgCl2, 10 mM glucose, and 10 mM HEPES (pH 7.4; 300 mOsm). The pipette solution for voltage-clamp recordings contained: 140 mM CsCl, 5 mM EGTA, 1 mM CaCl2), 1 mM MgCl2, and 10 mM HEPES (pH 7.2); and for current clamp recordings: 140 mM KCl, 6 mM NaCl, 2 mM CaCl2), 1 mM MgCl2, 10 mM glucose, and 10 mM HEPES (pH 7.4; 300 mOsm); MA and bradykinin acetate salt (Sigma) perfused during experiments were dissolved in the bath solution to a final concentration of 300 μM for 2 min, and 1 μM for 5 min respectively; and for long exposure experiments bradykinin was supplemented to the culture medium and added to the cells 18-24 h prior recording. For cytoskeleton disruption experiments, N2A^Piezo1−/− were incubated in media supplemented with 1 μM latrunculin A (Cayman Chemicals) for 1 h prior recordings. Pipettes were made out of borosilicate glass (Sutter Instruments) and were fire-polished before use until a resistance between 3 and 5 MΩ was reached.\n(§8) During mechanical stimulation, currents were recorded at a constant voltage (−60 mV, voltage-clamp), and voltages were recorded without injecting current (current-clamp). Both variables were sampled at 100 kHz and low-pass filtered at 10 kHz using a MultiClamp™ 700 B amplifier and Clampex (Molecular Devices, LLC). […] Leak currents before mechanical stimulations were subtracted off-line from the current traces and data were digitally filtered at 2 kHz with ClampFit (Molecular Devices, LLC).\n(§9) Mechanical stimulation: For indentation assays, N2A^Piezo1−/−, MCC13 DRG neurons, and human iPSC374 derived neurons were mechanically stimulated with a heat-polished blunt glass pipette (3-4 μm) driven by a piezo servo controller (E625, Physik Instrumente). The blunt pipette was mounted on a micromanipulator at an ~45° angle and positioned 3-4 μm above from the cells without indenting them. Displacement measurements were obtained with a square-pulse protocol consisting of 1 μm incremental indentation steps, each lasting 200 ms with a 2-ms ramp in 10-s intervals. The threshold of mechano-activated currents for each experiment was defined as the indentation step that evoked the first current deflection from the baseline."}, "[13]": {"tested_on": "mouse PIEZO2", "assay": "Whole-cell patch-clamp with mechanical indentation of N2A^Piezo1−/− cells transfected with Piezo2 variant 2 (V2)", "conditions": "from IC50 values", "description": "as §4, §7, §8, §9"}, "[14]": {"conditions": "also human Piezo2 in N2A^Piezo1−/− cells (FIG. 14c-d)"}}, "note": "Entries after “also recorded” stand apart in the source; their conditions may differ."}
{"smiles": "CCCCCCCCCCCCCCCCC(=O)O", "note": "[MA, heptadecanoic acid]", "values": [{"measurement": "effect on activity of Piezo2 V16", "setting": "[1]", "result": "inhibited the activity"}, {"measurement": "responses to von Frey filaments after topical AITC", "setting": "[2]", "result": "does not increase hyper-responsivity to punctate stimuli; also recorded: responded with sensitivities similar to their basal response"}, {"measurement": "current density after bradykinin administration", "setting": "[3]; MA 300 μM 18 h, bradykinin 1 μM perfusion, 10 μm displacement, mean±SD, control 3.36±1.68", "result": "3.64±1.96", "unit": "pA/pF"}, {"measurement": "mechano-currents after sensitization with bradykinin", "setting": "[3]; MA 300 μM 18 h, acute bradykinin 1 μM", "result": "decreases the mechano-currents, even after sensitization with bradykinin"}, {"measurement": "current densities after combined overnight incubation with bradykinin", "setting": "[3]; bradykinin 1 μM and MA 300 μM, 18 h both", "result": "restored the current densities to those of control neurons"}, {"measurement": "effect on PIEZO2 currents", "setting": "[4]; 50 μM each day for 5 days", "result": "significantly decreased PIEZO2 currents"}, {"measurement": "effect on endogenous PIEZO2 currents", "setting": "[4]; 300 and 600 μM overnight", "result": "significantly reduced endogenous PIEZO2 currents"}, {"measurement": "mechanical threshold needed to activate the human channel", "setting": "[4]; [14]", "result": "increased the mechanical threshold needed to activate the human channel"}, {"measurement": "time constant of inactivation", "setting": "[4]; [14]", "result": "without altering the time constant of inactivation"}, {"measurement": "IC50", "setting": "[5]; MA 1-300 μM 18 h", "result": "28.3 ± 3.4", "unit": "µM"}, {"measurement": "IC50", "setting": "[5]; latrunculin A-treated cells, MA 1-300 μM 18 h plus latrunculin A", "result": 25.6, "unit": "µM"}, {"measurement": "effect on displacement threshold", "setting": "[6]", "result": "increasing the displacement threshold"}, {"measurement": "effect on mechano-activated (endogenous PIEZO2) currents", "setting": "[6]", "result": "decreases mechano-activated currents; also recorded: decreases endogenous PIEZO2 currents"}, {"measurement": "effect on displacement threshold", "setting": "[7]", "result": "increasing the displacement threshold"}, {"measurement": "effect on mechano-evoked currents", "setting": "[7]; rapidly, intermediate and slowly inactivating currents", "result": "inhibit all mechanosensitive currents; also recorded: decreases mechano-activated currents; also recorded: decreased the current magnitude of all DRG neurons mechano-evoked currents"}, {"measurement": "effect on mechano-activated currents", "setting": "[8]", "result": "decreases mechano-activated currents in rat DRG neurons; also recorded: inhibit all mechanosensitive currents"}, {"measurement": "hypersensitivity to punctate touch (tactile allodynia)", "setting": "[9]; MA 5 mM injected daily into hind paw for 7 days", "result": "ameliorates hypersensitivity to touch after injury; also recorded: selectively decreases tactile allodynia; also recorded: protects against tactile allodynia; also recorded: do not develop; also recorded: failed to develop this type of heightened withdrawal response"}, {"measurement": "baseline touch responses", "setting": "[9]; acute sub-dermal injection", "result": "had no effect on baseline touch responses"}, {"measurement": "effect on activity of Piezo2 V14", "setting": "[10]", "result": "inhibited the activity"}, {"measurement": "electrical excitability", "setting": "[11]; 300 μM", "result": "does not alter mouse DRG neurons electrical excitability; also recorded: does not alter DRG neuronal electrical excitability"}, {"measurement": "action potential firing elicited by current injection", "setting": "[11]; 300 μM vs control", "result": "no difference in action potential firing elicited by current injection"}, {"measurement": "amplitudes of voltage-activated inward Na+ and outward K+ currents", "setting": "[11]; 300 μM vs control", "result": "no significant differences"}, {"measurement": "membrane potential", "setting": "[11]; 300 μM, whole-cell configuration", "result": "did not alter membrane potential"}, {"measurement": "effect on PIEZO2 inactivation", "setting": "[12]; 50 μM each day for 4 days", "result": "without altering PIEZO2 inactivation"}, {"measurement": "effect on displacement threshold", "setting": "[12]; 50 μM each day for 4 days", "result": "increases the displacement threshold"}, {"measurement": "decrease of PIEZO2 currents", "setting": "[12]; 50 μM each day over four days", "result": 65, "unit": "%"}, {"measurement": "effect on PIEZO2 currents", "setting": "[12]; 1-600 μM overnight", "result": "inhibits heterologously-expressed mouse PIEZO2 currents; also recorded: inhibits PIEZO2 currents in a concentration-dependent manner"}, {"measurement": "IC50", "setting": "[12]; MA 1-600 μM overnight (18 h), normalized current densities at maximum displacement, Boltzmann fit", "result": "191 ± 14.7", "unit": "µM"}, {"measurement": "IC50", "setting": "[12]; latrunculin A-treated cells, MA 1-600 μM 18 h plus latrunculin A 1 μM for 1 h", "result": "75.4 ± 13.3", "unit": "µM"}, {"measurement": "MA concentration required to decrease PIEZO2 currents", "setting": "[12]; overnight supplementation", "result": "higher than 100 μM"}, {"measurement": "effect on time constant of inactivation", "setting": "[12]; overnight supplementation", "result": "without affecting the time constant of inactivation"}, {"measurement": "increase of displacement threshold required to elicit PIEZO2 currents vs control cells", "setting": "[12]; overnight supplementation", "result": "three fold"}, {"measurement": "times more MA needed to inhibit PIEZO2 than PIEZO1", "setting": "[13]", "result": "~ 7 times"}]}
